Measured values: US11254666B2, “Compound as GLS1 inhibitor” (MEDSHINE DISCOVERY INC., priority 2017, dated 2022)

Experiments:
[1] = target: T1, GLS1 (Homo sapiens, UniProt O94925); test: Activity test of compounds in GLS1 coupling reaction system; assay type: biochemical; details: 2 nM GLS1, 4.5 mM L-glutamine, 1 hour pre-incubation at 23° C.
T1 sequence (O94925 55-669): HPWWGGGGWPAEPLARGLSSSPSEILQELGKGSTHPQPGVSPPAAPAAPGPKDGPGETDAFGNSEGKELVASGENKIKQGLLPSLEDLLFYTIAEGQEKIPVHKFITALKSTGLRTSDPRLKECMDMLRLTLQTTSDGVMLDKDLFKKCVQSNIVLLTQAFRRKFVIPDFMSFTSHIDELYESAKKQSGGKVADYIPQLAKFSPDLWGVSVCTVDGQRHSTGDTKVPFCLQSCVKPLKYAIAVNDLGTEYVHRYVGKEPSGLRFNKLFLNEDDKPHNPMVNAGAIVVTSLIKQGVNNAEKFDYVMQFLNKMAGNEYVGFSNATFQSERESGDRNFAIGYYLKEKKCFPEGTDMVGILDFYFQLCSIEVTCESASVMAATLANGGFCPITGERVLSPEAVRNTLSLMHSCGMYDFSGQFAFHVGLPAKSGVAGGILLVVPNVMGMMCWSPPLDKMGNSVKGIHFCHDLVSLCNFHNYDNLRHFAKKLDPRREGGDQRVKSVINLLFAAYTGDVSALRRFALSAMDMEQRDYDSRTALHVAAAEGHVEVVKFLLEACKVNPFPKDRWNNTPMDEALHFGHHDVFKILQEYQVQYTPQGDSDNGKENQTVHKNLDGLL
Protocol: Experimental Example 1: Activity Test of Compounds in GLS1 Coupling Reaction System
Preparation of Reaction Reagents: Relevant reagents should be prepared on the day of the experiment: Preparation of 1× assay buffer The final concentration of each component in the final experimental buffer was: 50 mM Tris-HCl pH 8.0, 0.25 mM EDTA, 150 mM K2HPO4, 0.1 mg/mL BSA, 1 mM DTT, 0.01% Triton X-100 Preparation of 2× experimental component solutions: The reagents were taken out and placed on ice to melt naturally for later use; 1× assay buffer was used to prepare “solution A” (solution A contains: L-glutamine, NAD+(nicotinamide adenine dinucleotide) and GLDH (glutamic acid dehydrogenase)). The final concentrations of each component in the final experimental reaction systemwere 4.5 mM L-glutamine, 2 mM NAD+ 4 U/mL GLDH. 1× assay buffer was used to prepare “solution B” - - - 2× enzyme solution (solution B contains GLS1 enzyme). The final concentration of GLS1 in the final experimental reaction system was 2 nM. Experimental Steps: The experiment plates are prepared by Labcyte ECHO before the experiment, which contain the compounds gradient concentrations and the corresponding DMSO solution: The experimental plates were taken out, and 20 μL of solution B (enzyme GLS1 solution) was added to columns 2 to 23 of the experimental plate, then 20 μL assay buffer was added to columns 1 and 24 as Min control in the experimental system. Then the experimental plates were centrifuged at 1000 rpm for 30 seconds; and sealed the membrane, and the plates were incubated at 23° C. for 1 hour. After the incubation of 1 hour, 20 μL of solution A was added to columns 1 to 24 of the experimental plates (ie, Samples were added to the whole plate). The experimental plates were centrifuged at 1000 rpm for 30 seconds. The experimental plates were placed on the SpectraMax 340PC, and the plates were continuously read for 20 minutes in dynamic mode (the reading interval was set to 1 minute).

[2] = Evaluation of compounds pharmacokinetics in mice; assay type: in vivo; details: mouse, plasma, female C57BL/6 mice
Protocol: Experimental Example 2: Evaluation of Compounds Pharmacokinetics
Experimental purpose: To test the pharmacokinetics of compounds in mice
C57BL/6 mice (female, 7-9 weeks old, Shanghai SLAC)
Experimental procedure: C57BL/6 mice (C57BL/6) were administered a clear solution obtained by dissolving test compounds via tail vein injection and intragastric administration (overnight fast, 7-9 weeks old). After administration of the test compounds, the intravenous group was at 0.0833, 0.25, 0.5, 1, 2, 4, 6, 8 and 24 h, and the gavage group was at 0.0833, 0.25, 0.5, 1, 2, 4, 6, 8 and 24, blood was collected from the mandibular vein and centrifuged to obtain plasma. LC-MS/MS method was used to determine blood drug concentration, and WinNonlin™ Version 6.3 pharmacokinetic software was used to calculate the relevant pharmacokinetic parameters by non-compartment model linear logarithmic trapezoid method.

## O=C(Cc1cccnc1)Nc1nnc(NC2CCN(c3cccnn3)CC2)s1 [Example 5]
[1]
  IC50: 200 to 1000 nM

## O=C(Cc1cc(Cl)ccc1Cl)Nc1nnc(NC2CCN(c3cccnn3)CC2)s1 [Example 7]
[1]
  IC50: 200 to 1000 nM

## O=C(Cc1cc(Cl)ccc1F)Nc1nnc(NC2CCN(c3cccnn3)CC2)s1 [Example 8]
[1]
  IC50: 200 to 1000 nM

## O=C(Cc1cc(OC(F)(F)F)ccc1F)Nc1nnc(NC2CCN(c3cccnn3)CC2)s1 [Example 9]
[1]
  IC50: 200 to 1000 nM

## CO[C@H](C(=O)Nc1nnc(NC2CCN(c3cccnn3)CC2)s1)c1cccnc1 [Example 16]
[1]
  IC50: 200 to 1000 nM

## CO[C@H](C(=O)Nc1nnc(NC2CCN(c3cccnn3)CC2)s1)c1cc(OC(F)(F)F)ccc1F [Example 17]
[2]; po, intragastric vs tail vein
  bioavailability: 91.3%
[2]; po, tail vein injection and intragastric administration, route and dose not given, read-out: T1/2 (half-life) (converted)
  half-life: 2.52 h
[2]; route and dose not given
  AUC(0-inf): 26.1 µM·h
[2]; route and dose not given, read-out: Cmax (maximum concentration)
  Cmax: 11.6 µM
[1]
  IC50: < 200 nM
